The subject of one experiment is MCF7. Kind of experiment: Growth inhibition of human MCF7 cells at 10 uM after 48 hrs. As to conditions: MCF7, 48 h, read-out: GI. Format: functional.
The next experiment has as its system Escherichia coli. Kind of experiment: Antimicrobial activity against Escherichia coli assessed as inhibition zone at 200 ug/disk after 24 hrs by disc-diffusion method. Type of experiment: functional. As to conditions: read-out: IZ. On the technique in general: A growth-free zone around the sample is the usual read-out of agar diffusion tests.
For a further experiment, the system named is Staphylococcus aureus. The experiment in a line: Antimicrobial activity against Staphylococcus aureus assessed as inhibition zone at 200 ug/disk after 24 hrs by disc-diffusion method. Type of experiment: functional. As to conditions: read-out: IZ.
In another experiment the target is T1, Dihydrofolate reductase (Bos taurus, UniProt P00376).
T1 sequence (P00376 whole entry): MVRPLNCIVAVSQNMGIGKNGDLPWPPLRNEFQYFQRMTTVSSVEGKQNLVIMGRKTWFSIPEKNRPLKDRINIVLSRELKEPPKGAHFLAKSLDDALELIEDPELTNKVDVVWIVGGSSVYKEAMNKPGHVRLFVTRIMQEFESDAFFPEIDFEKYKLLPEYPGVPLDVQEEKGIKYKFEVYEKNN
Kind of experiment: Inhibition of bovine liver DHFR.

The next experiment deals with NCI-H522. The experiment in a line: Growth inhibition of human NCI-H522 cells at 10 uM after 48 hrs. Particulars: NCI-H522, 48 h, read-out: GI. Format: functional.
For a further experiment, the system named is Candida albicans. Kind of experiment: Antimicrobial activity against Candida albicans assessed as inhibition zone at 200 ug/disk after 24 hrs by disc-diffusion method. Format: functional. As to conditions: read-out: IZ.
Experiment [1] in a line: Growth inhibition of human UO31 cells at 10 uM after 48 hrs. Type of experiment: functional. Particulars: UO-31, 48 h, read-out: GI.
The test system of a further experiment is Pseudomonas aeruginosa. Kind of experiment: Antimicrobial activity against Pseudomonas aeruginosa assessed as inhibition zone at 200 ug/disk after 24 hrs by disc-diffusion method. Type of experiment: functional. Particulars: read-out: IZ.
The next experiment has as its system Bacillus subtilis. Kind of experiment: Antimicrobial activity against Bacillus subtilis assessed as inhibition zone at 200 ug/disk after 24 hrs by disc-diffusion method. Type of experiment: functional. Particulars: read-out: IZ.
The next experiment relates to SR. Kind of experiment: Growth inhibition of human SR cells at 10 uM after 48 hrs. Type of experiment: functional. As to conditions: read-out: GI.
A further experiment concerns T47D. Kind of experiment: Growth inhibition of human T47D cells at 10 uM after 48 hrs. Format: functional. Particulars: read-out: GI.
A short description of experiment [2]: Growth inhibition of human HOP92 cells at 10 uM after 48 hrs. Type of experiment: functional. As to conditions: HOP-92, 48 h, read-out: GI.
Another experiment has as its system HL-60(TB). The experiment in a line: Growth inhibition of human HL-60(TB) cells at 10 uM after 48 hrs. Type of experiment: functional. Particulars: HL-60, 48 h, read-out: GI.
A short description of experiment [3]: Growth inhibition of human SF295 cells at 10 uM after 48 hrs. Type of experiment: functional. Particulars: SF-295, 48 h, read-out: GI.
Another experiment has as its system MDA-MB-468. Kind of experiment: Growth inhibition of human MDA-MB-468 cells at 10 uM after 48 hrs. Type of experiment: functional. Particulars: MDA-MB-468, 48 h, read-out: GI.
Experiment [4] is described as follows: Growth inhibition of human PC3 cells at 10 uM after 48 hrs. Format: functional. As to conditions: PC-3, 48 h, read-out: GI.

The term IC50 denotes the concentration needed to halve the response being measured. Read a low IC50 as inhibition by little substance. As to `COc1cc2nc(Sc3sc(N)nc3C)n(-c3ccccc3)c(=O)c2cc1OC`, the inhibition of growth at 10 µM in the experiment with MCF7 is 21.7%; with NCI-H522 it was 25.6%; in experiment [1] it was 32.3%; with SR, 15%. In addition, the zone of inhibition at 200 µg/disc in the experiment with Escherichia coli, with Staphylococcus aureus, in the experiment on Candida albicans, with Pseudomonas aeruginosa and in the experiment with Bacillus subtilis was 8 mm each time. The compound also yielded a 50% inhibitory concentration (IC50) at Dihydrofolate reductase of 7 µM.
Regarding `Cc1nc(N)sc1Sc1nc2ccc(Cl)cc2c(=O)n1-c1ccccc1`, the inhibition of growth at 10 µM in the experiment with MCF7 is 18%; in the experiment with T47D it was 14.3%; in [1] it was 32.6%. The zone of inhibition at 200 µg/disc with Escherichia coli, in the experiment with Staphylococcus aureus, with Candida albicans, with Pseudomonas aeruginosa and in the experiment on Bacillus subtilis was 8 mm each time. Also, inhibition against Dihydrofolate reductase was half-maximal at 5 µM (IC50).
Consider `COc1ccc(-n2c(Sc3nnc(N)s3)nc3cc(OC)c(OC)cc3c2=O)cc1`, for which the zone of inhibition at 200 µg/disc in the experiment on Escherichia coli, in the experiment on Staphylococcus aureus, with Candida albicans, with Pseudomonas aeruginosa and in the experiment on Bacillus subtilis was 8 mm throughout. At Dihydrofolate reductase, this compound displayed an IC50 of 7 µM. In addition, the inhibition of growth at 10 µM in experiment [2] came to 33.7%.
`Nc1nnc(Sc2nc3ccc(Cl)cc3c(=O)n2-c2ccc(Oc3ccccc3)cc2)s1`: the zone of inhibition at 200 µg/disc with Escherichia coli, in the experiment with Staphylococcus aureus, in the experiment with Candida albicans, in the experiment with Pseudomonas aeruginosa and in the experiment with Bacillus subtilis was 8 mm each time. On Dihydrofolate reductase, this compound yielded an IC50 of 0.4 µM. Besides, the values for the inhibition of growth at 10 µM (in experiment [1]; in the experiment on HL-60(TB)) were 17% and 12%, respectively.
Regarding `COc1cc2nc(Sc3nnc(N)s3)n(-c3ccccc3)c(=O)c2cc1OC`, the zone of inhibition at 200 µg/disc in the experiment on Escherichia coli, with Staphylococcus aureus, with Candida albicans, in the experiment with Pseudomonas aeruginosa and in the experiment on Bacillus subtilis was 8 mm each time. Further, the IC50 against Dihydrofolate reductase stood at 10 µM. The inhibition of growth at 10 µM was found to be 10.6% in experiment [3]; 10.4% with MDA-MB-468; 10.9% in [4]; 14.2% in experiment [1]; 15.4% in experiment [2].

The record behind these values is ChEMBL document CHEMBL3352542, “Synthesis, biological evaluation and molecular modeling study of 2-(1,3,4-thiadiazolyl-thio and 4-methyl-thiazolyl-thio)-quinazolin-4-ones as a new class of DHFR inhibitors” (Bioorg Med Chem Lett, 2014).
